# PMC12432378 (Cell Reports Medicine, 2025)
# pIC50: −log10 of the molar value. Positions of bridges follow the written chain, without caps; N, C: chain ends. Non-standard residues stand in square brackets, D forms with d. Residues, ends and D or L forms follow the SMILES beside them. S5 = C=CCCC[C@](C)(N)C(=O)O
# System: SARS-CoV-2 variants, including Delta, BA.2.75, XBB.1.16, and KP.2
# Settings: BA.2.75, XBB.1.16, and KP.2, 48 h
row,Structure (SMILES),pIC50
1,CC[C@H](C)[C@H](NC(=O)[C@H](C)NC(=O)[C@H](CCSC)NC(=O)[C@H](CCC(=O)O)NC(=O)[C@H](CC(=O)O)NC(=O)[C@H](CO)NC(=O)[C@H](CC(C)C)NC(=O)[C@H](CC(=O)O)NC(=O)[C@H](CC(C)C)NC(=O)[C@H](CC(C)C)NC(=O)[C@@H](NC(=O)[C@@H](NC(=O)[C@H](CC(N)=O)NC(=O)[C@@H](NC(=O)[C@H](CCCCN)NC(=O)[C@H](CO)NC(=O)[C@@H](NC(=O)[C@H](CCC(=O)O)NC(C)=O)[C@@H](C)CC)[C@@H](C)CC)C(C)C)[C@@H](C)O)C(=O)N[C@@H](CC(C)C)C(=O)N[C@@H](CC(C)C)C(=O)N[C@@H](CCC(=O)O)C(=O)N[C@@H](C)C(=O)N[C@H](C(=O)N[C@@H](CCCCN)C(=O)N[C@@H](CCC(N)=O)C(=O)N[C@@H](CC(C)C)C(=O)N[C@@H](CC(N)=O)C(=O)N[C@@H](CC(=O)O)C(=O)N[C@@H](CO)C(=O)N[C@@H](Cc1ccc(O)cc1)C(=O)N[C@H](C(=O)N[C@@H](CC(=O)O)C(=O)N[C@@H](CC(C)C)C(=O)N[C@@H](CCCCN)C(=O)N[C@@H](CCC(=O)O)C(=O)N[C@@H](CC(C)C)C(N)=O)[C@@H](C)CC)[C@@H](C)CC [MjHKU4r-HR2P9],6.34 to 6.42
2,CC[C@H](C)[C@H](NC(=O)[C@H](C)NC(=O)[C@H](CCSC)NC(=O)[C@H](CCC(=O)O)NC(=O)[C@H](CC(=O)O)NC(=O)[C@H](CO)NC(=O)[C@H](CC(C)C)NC(=O)[C@H](CC(=O)O)NC(=O)[C@H](CC(C)C)NC(=O)[C@H](CC(C)C)NC(=O)[C@@H](NC(=O)[C@@H](NC(=O)[C@H](CC(N)=O)NC(=O)[C@@H](NC(=O)[C@H](CCCCN)NC(=O)[C@H](CO)NC(=O)[C@@H](NC(=O)[C@H](CCC(=O)O)NC(C)=O)[C@@H](C)CC)[C@@H](C)CC)C(C)C)[C@@H](C)O)C(=O)N[C@@H](CC(C)C)C(=O)N[C@@H](CC(C)C)C(=O)N[C@@]1(C)CCCC=CCCC[C@@](C)(C(=O)N[C@@H](CC(C)C)C(=O)N[C@@H](CC(N)=O)C(=O)N[C@@H](CC(=O)O)C(=O)N[C@@H](CO)C(=O)N[C@@H](Cc2ccc(O)cc2)C(=O)N[C@H](C(=O)N[C@@H](CC(=O)O)C(=O)N[C@@H](CC(C)C)C(=O)N[C@@H](CCCCN)C(=O)N[C@@H](CCC(=O)O)C(=O)N[C@@H](CC(C)C)C(N)=O)[C@@H](C)CC)NC(=O)[C@H](CCCCN)NC(=O)[C@H]([C@@H](C)CC)NC(=O)[C@H](C)NC1=O [MjHKU4r-HR2P10] (Ac-EISKINVTLLDLSDEMAILL[S5]AIK[S5]LNDSYIDLKEL-NH2; staple 21-25),6.72 to 7.07
